Test results published in patent US20100016232A1, “Treatment Of Inflammatory Diseases With Mammal Beta Defensins” (Novozymes A/S, priority 2008, published 2010).
Where no end group is shown, it is not given here.

What was measured:
PBMC = PBMC viability, MTS assay; format: cell-based, human; settings: 24 h
Experimental: (§1) Peripheral blood was drawn from healthy volunteers (with approval from the relevant ethical committee in Denmark). Heparinized blood was diluted 1/1 v/v with RPMI and were subjected to Ficoll density centrifugation within 2 h of drawing. Plasma was collected from the top from individual donors and was kept on ice until it was used at 2% in the culture medium (autologous culture medium). Isolated PBMC were resuspended in autologous culture medium and seeded in 96-well culture plates with 255.000 cells per well in a total of 200 μl. […] The concentrations used for stimulation were optimized on 3 different donors in initial experiments, for LPS two different concentrations were used to be sure to be on a cytokine level that is possible to modulate. In some experiments PBMC were treated with Dexamethason and Indomethacin alone and together with LPS or LTA as a control on downregulation of inflammatory cytokines. The supernatants were collected after incubation at 37° C. for 24 hours, and stored at −80° C. until cytokine measurement. Viability was measured by Alamar Blue (Biosource, DALL 1100) in all experiments and in some cases also by MTS (Promega) according to manufacturer's instruction and was in some experiments also judged by counting of the cells by a Nucleocounter.

[1] = system: IL-1β secretion from PBMC; experiment: IL-1β secretion from PBMC, ELISA; format: cell-based, human
Experimental: as §1
(§2) Cytokine production in supernatants was measured by flow cytometry with a human inflammation cytometric bead array (CBA) according to manufacturer's instructions (BD) on a FACSarray flow cytometer. The following cytokines were measured: IL-8, IL-1β, IL-10, TNF, IL-12 p70, IL-6. In some experiments, cytokines were measured by ELISA kits from R&D systems (IL-10, TNF-α, IL-1β) according to the manufacturer' instruction.
In Tables 6, 7 and 8, supernatants from another donor were analysed for cytokines by ELISA instead of by a cytometric bead array by flowcytometry and here the same were observed, although the sensitivity of the assay is lower and the detection limit much higher and therefore the effects were not as significant.

[2] = system: TNF production in supernatant from a human monocyte cell line (MUTZ-3); experiment: TNF production, human monocyte cell line MUTZ-3; format: cell-based
Experimental: The human myeloid leukaemia-derived cell line MUTZ-3 (DSMZ, Braunschweig, Germany) was maintained in a-MEM (Sigma M4526), supplemented with 20% [volume/volume (v/v)] fetal bovine serum (Sigma F6178) and 40 ng/ml rhGM-CSF (R&D Systems 215-GM-050).
as §2

**Q.** Which “Viability, MTS” value (PBMC; LPS 0.6 ng/ml, hBD2 1 μg/ml) does the source give for “hBD2: human beta defensin 2, SEQ ID NO:2; produced recombinantly in E. coli (Example 1); hBD2 of Tables 16-18 was prepared by chemical synthesis (GIGDPVTCLKSGAICHPVFCPRRYKQIGTCGLPGTKCCKKP; ends and bridges not checked; cysteine pairing not given here; listed as Homo sapiens)” here?
**A.** The value was 1.5 Abs 490 nm.

**Q.** And the “Viability, MTS” value (PBMC; LPS 0.6 ng/ml, hBD2 10 μg/ml)?
**A.** Its value is 2.0 Abs 490 nm.

**Q.** And the “Viability, MTS” value (PBMC; LPS 0.6 ng/ml, hBD2 100 μg/ml)?
**A.** Its value is 1.6 Abs 490 nm.

**Q.** And the “Viability, MTS” value (PBMC; LPS 20 ng/ml, hBD2 1 μg/ml)?
**A.** The value was 1.6 Abs 490 nm.

**Q.** What about the “Viability, MTS” value (PBMC; LPS 20 ng/ml, hBD2 10 μg/ml) of the same substance?
**A.** Its value is 1.8 Abs 490 nm.

**Q.** What about the “Viability, MTS” value (PBMC; LPS 20 ng/ml, hBD2 100 μg/ml) of the same substance?
**A.** The value was 1.9 Abs 490 nm.

**Q.** And the “Viability, MTS” value (PBMC; Medium, hBD2 1 μg/ml)?
**A.** The value was 1.3 Abs 490 nm.

**Q.** And the “Viability, MTS” value (PBMC; Medium, hBD2 10 μg/ml)?
**A.** The value was 1.5 Abs 490 nm.

**Q.** What about the “Viability, MTS” value (PBMC; Medium, hBD2 100 μg/ml) of the same substance?
**A.** The value was 1.2 Abs 490 nm.

**Q.** What about the IL-1β ([1]; LPS 0.6 ng/ml, hBD2 1 μg/ml) of the same substance?
**A.** The IL-1β was 0.237 ng/mL.

**Q.** And the IL-1β ([1]; LPS 0.6 ng/ml, hBD2 10 μg/ml)?
**A.** The IL-1β was 0.268 ng/mL.

**Q.** And the IL-1β ([1]; LPS 0.6 ng/ml, hBD2 100 μg/ml)?
**A.** Its IL-1β is 0.275 ng/mL.

**Q.** What about the IL-1β ([1]; LPS 20 ng/ml, hBD2 1 μg/ml) of the same substance?
**A.** Its IL-1β is 0.638 ng/mL.

**Q.** And the IL-1β ([1]; LPS 20 ng/ml, hBD2 10 μg/ml)?
**A.** Its IL-1β is 0.354 ng/mL.

**Q.** And the IL-1β ([1]; LPS 20 ng/ml, hBD2 100 μg/ml)?
**A.** Its IL-1β is 0.395 ng/mL.

**Q.** And the IL-1β ([1]; LTA 1.25 μg/ml, hBD2 1 μg/ml)?
**A.** The IL-1β was 0.224 ng/mL.

**Q.** And the IL-1β ([1]; LTA 1.25 μg/ml, hBD2 10 μg/ml)?
**A.** Its IL-1β is 0.193 ng/mL.

**Q.** And the IL-1β ([1]; LTA 1.25 μg/ml, hBD2 100 μg/ml)?
**A.** Its IL-1β is 0.281 ng/mL.

**Q.** And the TNF ([2]; LPS 1.5 μg/ml, hBD2 1 μg/ml)?
**A.** The TNF was 6.61 pg/mL.

**Q.** And the TNF ([2]; LPS 1.5 μg/ml, hBD2 10 μg/ml)?
**A.** The TNF was 3.93 pg/mL.

**Q.** And the TNF ([2]; LPS 1.5 μg/ml, hBD2 100 μg/ml)?
**A.** The TNF was 3.93 pg/mL.

**Q.** And the TNF ([2]; LTA 1.5 μg/ml, hBD2 1 μg/ml)?
**A.** Its TNF is 1.75 pg/mL.

**Q.** What about the TNF ([2]; LTA 1.5 μg/ml, hBD2 10 μg/ml) of the same substance?
**A.** The TNF was 3.76 pg/mL.

**Q.** What about the TNF ([2]; LTA 1.5 μg/ml, hBD2 100 μg/ml) of the same substance?
**A.** The TNF was 2.64 pg/mL.

**Q.** What about the TNF ([2]; Medium, hBD2 1 μg/ml) of the same substance?
**A.** The TNF was 2.21 pg/mL.

**Q.** What about the TNF ([2]; Medium, hBD2 10 μg/ml) of the same substance?
**A.** The TNF was 2.60 pg/mL.

**Q.** And the TNF ([2]; Medium, hBD2 100 μg/ml)?
**A.** Its TNF is 0.00 pg/mL.
